From patent US10494402B2, “Peptides that stimulate subcutaneous adipogenesis” (The Regents of the University of California, priority 2012, dated 2019)

Experiments:
[1] = system: rat mesenchymal stem cells; assay: Adipogenesis Assay 1 (IBMX/dexamethasone priming, peptide replaces insulin; Oil Red O or BODIPY); assay type: cell-based; conditions: for Fold adipogenic induction vs. negative control / Specific activity (activity/1000 daltons) / adipogenesis, absorption of Oil Red O at 520 nm, fold increase compared with negative control / adipogenesis, number of fat droplets relative to negative controls (image analysis): Assay 1; for adipogenesis, absorption of Oil Red O at 520 nm, fold increase compared with negative control / adipogenesis, number of fat droplets relative to negative controls (image analysis): rat bone marrow mesenchymal stem cells, n=3; for adipogenesis, absorption of Oil Red O at 520 nm, fold increase compared with negative control: 0.1-25 μg
Procedure: Reagents: (1) 3-isobutyl-1-methylxanthine (IBMX) solution: 0.5M in DMSO; (2) Insulin solution: 10 mg/mL recombinant human insulin; (3) Dexamethasone solution in 10 mM in ethanol; (4) Oil Red O (0.36% in 60% isopropanol) or BODIPY dye (BODIPY 493/503 (4,4-difluoro-1,3,5,7-tetramethyl-4-bora-3a,4a-diaza-s-indacene-8-propionic acid, succinimidyl ester) from Invitrogen at 4-10 μM).
Adipogenesis Initiation Media: mesenchymal stem cell expansion media/0.5 mM IBMX/1 μM dexamethasone. Mesenchymal stem cell expansion media is commercially available from Millipore. The IBMX Solution was diluted 1:1000 and the Dexamethasone Solution was diluted 1:10,000 in expansion media containing antibiotics and antimycotics. The prepared media was stored at 4° C.
Adipogenesis Progression Media for positive control: mesenchymal stem cell expansion media/10 μg/mL insulin. The Insulin Solution was diluted 1:1000 in the expansion media and stored at 4° C.
Experimental Adipogenesis Progression Media: mesenchymal stem cell expansion media/1-100 μg/mL RHAMM antagonist peptides.
Adipogenesis Maintenance Media: mesenchymal stem cell expansion media containing antibiotics and antimycotics.
Negative Control Media: DMEM/10% normal calf serum.
Pre-adipocyte stem cells including bone marrow mesenchymal stem cells and fibroblasts including reticular and papillary dermal fibroblasts were propagated using standard tissue culture methods. Cells were trypsinized to remove the cells from the substratum. The trypsin was neutralized and cells were counted using a hemocytometer. Cells were resuspended at 30,000 cells/mL in expansion media. […] of cell suspension was plated per well of 24-well plate, with several wells left empty for blank well staining.
Cells were incubated for 1-2 days until they reached confluency. Approximately 1.8 mL of media was removed from each well and replaced with 2 mL Adipogenesis Initiation Media. For negative control wells, expansion media only was used at this step and for subsequent media changes. For all media changes, media was replaced as gently as possible to avoid disturbing the monolayer.
Cells were incubated for 48 hours at 37° C., 5% CO2. 2 mL media was removed from each well, and replaced with 2 mL either positive control or experimental Adipogenesis Progression Media per well. Cells were again incubated for 48 hours at 37° C., 5% CO2. 2 mL of media was removed from each well and replaced with 2 mL Adipogenesis Maintenance Media per well. In addition, media was added to the empty wells reserved for blank well staining Cells were incubated for at least 48 hours at 37° C., 5% CO2. Media was replaced every 48-72 hours. Accumulation of intracellular lipid droplets continued for at least 5 days.
For quantification of Oil Red O staining, media was removed and cells were washed twice with PBS, using care to gently add the PBS. 0.5 mL Oil Red O solution was added per well of 24-well plate, including to the wells lacking cells, but containing media. Cells were incubated for 15 minutes at room temperature. The staining solution was then removed and wells were washed three times with 1 mL of phosphate buffered saline (PBS). In some experiments, following removal of the last wash, stained plates were scanned or photographed.
Adipogenesis was quantified using a spectrophotometer or fluorometer. 0.25 mL Dye Extraction Solution (isopropyl alcohol) was added per well, and the plate was set on an orbital shaker or platform rocker for 15-30 minutes. Extracted dye was transferred into a cuvette and absorbance was read in a spectrophotometer at visible range for oil red 0 or transferred to a 96-well plate and quantified in a plate reader.
For quantification of BODIPY dye uptake, media was removed and cells were washed twice with PBS, using care to gently add the PBS. Cells were then fixed in 3% paraformaldehyde, washed in PBS then incubated for 1 hour in the dark with the BODIPY solution, prepared in PBS. […]

[2] = system: human adipose-derived stem cells (h-ADSCs); assay: Differentiation of human adipose-derived stem cells (h-ADSCs); assay type: cell-based; conditions: for adipogenesis, absorbance of extracted Oil Red O: 5 μg/ml in adipogenic cocktail in the absence of insulin and PPARγ agonist, two weeks; for adipogenesis (micrographs) in the absence of PPARγ agonist / adipogenesis (micrographs) in the presence of PPARγ agonist: B peptide 5 μg/ml, 6-mer 5 μg/ml or 20 μg/ml
Excerpt: The Adipocyte Differentiation Medium contained DMEM/Ham's F-12 (1:1 v/v), HEPES pH 7.4, fetal bovine serum, biotin, penicillin, streptomcyin, amphotericin B, pantothenate, human insulin, dexamethasone, isobutylmethylxanthine (IBMX) and a PPARγ agonist. This positive stimulus was used as the positive control. […] The upper right panel and the lower left panel of FIG. 14 provide two different fields of view of the h-ASDCs exposed to the adipogenic cocktail at 4× magnification.
Monolayers that were maintained in Preadipocyte Medium only (ZenBio catalog no. PM-1, containing DMEM/Ham's F-12 (1:1 v/v), HEPES 7.4, fetal bovine serum, penicillin, streptomcyin, and amphotericin B) or monolayers that were exposed to the adipogenic cocktail without insulin and PPARγ agonist were both used as negative controls. […] The negative controls shown in FIG. 15 were exposed to Preadipocyte Medium only. […] The adipogenic peptides (peptide B and the KSEVSK 6-mer) were mixed into adipogenic cocktail that lacked the PPARγ agonist and/or insulin and used as the experimental condition.
To quantify the adipogenic activity of the KSEVSK 6-mer (SEQ ID NO: 3) and the B peptide (SEQ ID NO: 2), h-ADSCs were exposed to 5 μg/ml of these peptides in the adipogenic cocktail in the absence of insulin and PPARγ agonist). The experiment was terminated two weeks after the addition of adipogenic mixtures. At this time, photographs of monolayers were taken and the lipid droplet accumulation was quantified by measuring the absorbance of extracted Oil Red 0. […] The peptides stimulated adipogenesis to a similar extent when the PPARγ agonist alone or both the PPARγ agonist and insulin were deleted from the adipogenic cocktail (not shown).
In further studies using h-ADSCs, two different protocols were used. In the first of these protocols, h-ADSCs were exposed to the adipogenic cocktail plus the KSEVSK 6-mer (SEQ ID NO: 3) or B peptide (SEQ ID NO: 2) at concentrations of 5 μg/ml or 20 μg/ml. […] In the second of these protocols, h-ADSCs were exposed to adipogenic cocktail in which the PPARγ agonist was replaced with either the KSEVSK 6-mer or the B peptide at concentrations of 5 μg/ml or 20 μg/ml. […] Statistical analysis were performed compared to negative control. Data presented as mean±standard error (n=3).

[3] = system: Female Fisher retired breeder rats; assay: In vivo adipogenic activity in female retired breeder rat model; conditions: 100 μg subcutaneous in 1 ml collagen vehicle; 7 days
Procedure: The adipogenic activity of the KSEVSK 6-mer (SEQ ID NO: 3) was also evaluated in vivo in a female retired breeder rat model. Female Fisher retired breeder rats (>9 months old) were used in these studies. The rats were injected subcutaneously with a 100 μg dose of the KSEVSK 6-mer peptide in 1 ml of a collagen vehicle or with collagen vehicle alone. The collagen vehicle contained 1 mg/ml of rat tail Type I collagen. […] Rats were injected with KSEVSK 6-mer peptide and collagen vehicle at sites A and C and with collagen vehicle only at sites B and D. Animals were maintained on a regular diet for 7 days and then euthanized Skin was harvested by cutting around the injected area, ensuring that underlying adipose tissue was retained with the skin at the injection sites. The tissue was then photographed and fat accumulation was assessed.

## KLKDENSQLKSEVSK [peptide B]
[1]
  Fold adipogenic induction vs. negative control: 1.85
  Specific activity (activity/1000 daltons): 1.0 activity/1000 daltons
  adipogenesis, absorption of Oil Red O at 520 nm, fold increase compared with negative control: significantly stimulated adipogenesis as compared to the negative control
  adipogenesis, number of fat droplets relative to negative controls (image analysis): significantly stimulated adipogenesis as compared to the negative control
[1]; bone marrow mesenchymal stem cells, depending upon the screening assay used (assay 1 or 2)
  amount at which a maximum adipogenic effect was obtained: 1 to 5 µg
[2]
  adipogenesis, absorbance of extracted Oil Red O: strongly promoted adipogenesis compared to the negative control (p<0.05)
  adipogenesis (micrographs) in the absence of PPARγ agonist: underwent adipogenesis
  adipogenesis (micrographs) in the presence of PPARγ agonist: underwent adipogenesis

## KSEVSK [KSEVSK 6-mer]
[1]
  Fold adipogenic induction vs. negative control: 2.83
  Specific activity (activity/1000 daltons): 3.76 activity/1000 daltons
  adipogenesis, absorption of Oil Red O at 520 nm, fold increase compared with negative control: significantly stimulated adipogenesis as compared to the negative control
  adipogenesis, number of fat droplets relative to negative controls (image analysis): significantly stimulated adipogenesis as compared to the negative control
[1]; calculated from adipogenesis data of assays 1 and 2
  specific activity compared among peptide B and 9-, 7-, 6-mer: highest specific activity
[1]; truncation experiments, assays 1 and 2, FIGS. 7, 8, 9
  adipogenic activity of truncation fragments: also found to be adipogenic
[2]
  adipogenesis, absorbance of extracted Oil Red O: strongly promoted adipogenesis compared to the negative control (p<0.05)
  adipogenesis (micrographs) in the absence of PPARγ agonist: underwent adipogenesis
  adipogenesis (micrographs) in the presence of PPARγ agonist: underwent adipogenesis
[2]; two weeks after initiation, peptide in cocktail lacking PPARγ agonist and/or insulin
  adipogenesis (lipid droplets) compared with positive control: more effective at promoting adipogenesis than the positive control
[3]
  fat pad surface area vs collagen vehicle alone: significantly larger
